Assay [1] concerns the target PIK3CA (human) (UniProt P42336). The assay can be described thus: Assessment of PIK3CA Kinase Activity.
Assay [2] concerns the target PIK3CG (human) (UniProt P48736). The assay is described as follows: Assessment of PIK3CG Kinase Activity.
Assay [3] concerns the target PIK3CB (Human) (UniProt P42338). The assay can be described thus: Assessment of PIK3CB Kinase Activity.
Assay [4] has as its target PIK3CD (Human) (UniProt O00329). The assay can be described thus: Assessment of PIK3CD Kinase Activity.

Sequence of PIK3CA (human) (P42336 whole entry, looked up): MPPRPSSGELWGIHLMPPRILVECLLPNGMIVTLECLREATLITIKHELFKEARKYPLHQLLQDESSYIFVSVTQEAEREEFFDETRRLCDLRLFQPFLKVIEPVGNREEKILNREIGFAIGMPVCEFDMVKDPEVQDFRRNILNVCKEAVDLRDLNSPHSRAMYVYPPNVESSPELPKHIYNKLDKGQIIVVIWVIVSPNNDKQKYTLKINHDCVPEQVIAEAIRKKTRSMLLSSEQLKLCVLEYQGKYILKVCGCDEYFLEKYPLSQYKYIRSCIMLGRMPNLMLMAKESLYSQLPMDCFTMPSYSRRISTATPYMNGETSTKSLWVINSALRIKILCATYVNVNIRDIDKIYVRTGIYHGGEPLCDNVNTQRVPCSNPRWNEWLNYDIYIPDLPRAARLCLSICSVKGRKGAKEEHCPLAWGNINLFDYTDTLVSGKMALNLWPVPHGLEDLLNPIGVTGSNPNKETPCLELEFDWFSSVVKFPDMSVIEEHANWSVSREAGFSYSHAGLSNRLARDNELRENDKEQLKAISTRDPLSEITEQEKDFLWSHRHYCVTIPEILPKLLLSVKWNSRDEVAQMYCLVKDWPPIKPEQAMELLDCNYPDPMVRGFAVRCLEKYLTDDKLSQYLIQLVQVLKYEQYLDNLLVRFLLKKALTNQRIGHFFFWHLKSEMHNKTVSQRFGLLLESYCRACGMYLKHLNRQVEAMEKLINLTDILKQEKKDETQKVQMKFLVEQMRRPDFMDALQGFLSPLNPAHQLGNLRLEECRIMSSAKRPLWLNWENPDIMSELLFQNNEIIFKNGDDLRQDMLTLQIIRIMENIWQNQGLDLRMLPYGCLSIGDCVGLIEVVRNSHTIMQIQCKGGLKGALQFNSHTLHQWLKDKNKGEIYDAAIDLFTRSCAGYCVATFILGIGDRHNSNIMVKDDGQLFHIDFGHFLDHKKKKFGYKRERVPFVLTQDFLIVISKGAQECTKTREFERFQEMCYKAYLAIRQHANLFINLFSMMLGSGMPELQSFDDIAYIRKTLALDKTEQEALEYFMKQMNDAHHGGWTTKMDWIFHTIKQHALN
Sequence of PIK3CB (Human) (P42338 whole entry, looked up): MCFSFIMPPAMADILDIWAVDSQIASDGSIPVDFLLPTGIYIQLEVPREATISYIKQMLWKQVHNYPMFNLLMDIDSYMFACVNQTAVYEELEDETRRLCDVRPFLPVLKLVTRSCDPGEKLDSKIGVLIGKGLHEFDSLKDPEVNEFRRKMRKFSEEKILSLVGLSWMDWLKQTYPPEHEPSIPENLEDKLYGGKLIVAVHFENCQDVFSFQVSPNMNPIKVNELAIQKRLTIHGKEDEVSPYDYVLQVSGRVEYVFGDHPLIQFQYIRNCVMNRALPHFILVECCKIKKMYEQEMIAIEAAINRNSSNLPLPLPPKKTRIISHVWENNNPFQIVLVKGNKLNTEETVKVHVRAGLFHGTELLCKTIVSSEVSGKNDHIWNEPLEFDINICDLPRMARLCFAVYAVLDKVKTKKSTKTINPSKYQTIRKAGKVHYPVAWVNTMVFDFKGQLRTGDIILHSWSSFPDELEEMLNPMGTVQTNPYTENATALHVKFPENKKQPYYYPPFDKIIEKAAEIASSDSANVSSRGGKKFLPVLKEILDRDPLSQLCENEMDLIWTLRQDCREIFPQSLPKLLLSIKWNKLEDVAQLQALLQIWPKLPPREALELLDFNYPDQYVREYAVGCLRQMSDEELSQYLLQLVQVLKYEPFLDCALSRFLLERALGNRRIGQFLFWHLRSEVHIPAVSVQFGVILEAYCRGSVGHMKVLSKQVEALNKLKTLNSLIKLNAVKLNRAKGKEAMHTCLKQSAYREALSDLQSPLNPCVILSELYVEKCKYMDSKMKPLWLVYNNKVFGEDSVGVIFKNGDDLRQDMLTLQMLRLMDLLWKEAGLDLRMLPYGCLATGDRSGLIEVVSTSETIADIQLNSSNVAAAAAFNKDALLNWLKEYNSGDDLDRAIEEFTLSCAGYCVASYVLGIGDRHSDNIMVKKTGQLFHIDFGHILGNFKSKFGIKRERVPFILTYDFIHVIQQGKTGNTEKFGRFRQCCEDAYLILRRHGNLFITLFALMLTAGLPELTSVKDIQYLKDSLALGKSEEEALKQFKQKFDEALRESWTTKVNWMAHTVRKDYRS
Sequence of PIK3CD (Human) (O00329 whole entry, looked up): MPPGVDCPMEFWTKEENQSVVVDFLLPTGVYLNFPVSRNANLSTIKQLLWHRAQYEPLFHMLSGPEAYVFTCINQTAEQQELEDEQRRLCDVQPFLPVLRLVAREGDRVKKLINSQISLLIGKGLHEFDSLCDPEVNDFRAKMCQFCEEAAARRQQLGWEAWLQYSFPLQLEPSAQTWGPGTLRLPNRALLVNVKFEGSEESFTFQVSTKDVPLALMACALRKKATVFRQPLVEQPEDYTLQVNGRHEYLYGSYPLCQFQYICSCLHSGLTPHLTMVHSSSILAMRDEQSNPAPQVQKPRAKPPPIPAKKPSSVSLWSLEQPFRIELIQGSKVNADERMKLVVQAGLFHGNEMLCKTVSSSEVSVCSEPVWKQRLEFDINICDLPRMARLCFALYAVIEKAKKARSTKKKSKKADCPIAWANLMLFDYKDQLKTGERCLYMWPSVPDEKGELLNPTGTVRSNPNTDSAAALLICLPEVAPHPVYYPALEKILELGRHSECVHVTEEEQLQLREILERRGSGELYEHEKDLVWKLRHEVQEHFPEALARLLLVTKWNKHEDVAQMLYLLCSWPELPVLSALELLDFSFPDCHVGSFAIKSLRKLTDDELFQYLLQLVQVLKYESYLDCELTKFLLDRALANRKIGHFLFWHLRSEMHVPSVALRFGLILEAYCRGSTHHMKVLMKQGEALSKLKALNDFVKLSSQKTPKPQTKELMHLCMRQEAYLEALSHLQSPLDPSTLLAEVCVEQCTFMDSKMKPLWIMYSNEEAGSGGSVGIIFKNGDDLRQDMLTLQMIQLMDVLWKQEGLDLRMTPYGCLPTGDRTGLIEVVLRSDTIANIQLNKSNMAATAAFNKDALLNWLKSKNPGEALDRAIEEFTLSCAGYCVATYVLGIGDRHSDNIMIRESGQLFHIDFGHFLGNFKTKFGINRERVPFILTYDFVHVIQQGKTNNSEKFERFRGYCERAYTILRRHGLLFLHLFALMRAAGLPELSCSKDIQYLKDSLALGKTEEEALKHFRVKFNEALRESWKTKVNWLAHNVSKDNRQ
Sequence of PIK3CG (human) (P48736 whole entry, looked up): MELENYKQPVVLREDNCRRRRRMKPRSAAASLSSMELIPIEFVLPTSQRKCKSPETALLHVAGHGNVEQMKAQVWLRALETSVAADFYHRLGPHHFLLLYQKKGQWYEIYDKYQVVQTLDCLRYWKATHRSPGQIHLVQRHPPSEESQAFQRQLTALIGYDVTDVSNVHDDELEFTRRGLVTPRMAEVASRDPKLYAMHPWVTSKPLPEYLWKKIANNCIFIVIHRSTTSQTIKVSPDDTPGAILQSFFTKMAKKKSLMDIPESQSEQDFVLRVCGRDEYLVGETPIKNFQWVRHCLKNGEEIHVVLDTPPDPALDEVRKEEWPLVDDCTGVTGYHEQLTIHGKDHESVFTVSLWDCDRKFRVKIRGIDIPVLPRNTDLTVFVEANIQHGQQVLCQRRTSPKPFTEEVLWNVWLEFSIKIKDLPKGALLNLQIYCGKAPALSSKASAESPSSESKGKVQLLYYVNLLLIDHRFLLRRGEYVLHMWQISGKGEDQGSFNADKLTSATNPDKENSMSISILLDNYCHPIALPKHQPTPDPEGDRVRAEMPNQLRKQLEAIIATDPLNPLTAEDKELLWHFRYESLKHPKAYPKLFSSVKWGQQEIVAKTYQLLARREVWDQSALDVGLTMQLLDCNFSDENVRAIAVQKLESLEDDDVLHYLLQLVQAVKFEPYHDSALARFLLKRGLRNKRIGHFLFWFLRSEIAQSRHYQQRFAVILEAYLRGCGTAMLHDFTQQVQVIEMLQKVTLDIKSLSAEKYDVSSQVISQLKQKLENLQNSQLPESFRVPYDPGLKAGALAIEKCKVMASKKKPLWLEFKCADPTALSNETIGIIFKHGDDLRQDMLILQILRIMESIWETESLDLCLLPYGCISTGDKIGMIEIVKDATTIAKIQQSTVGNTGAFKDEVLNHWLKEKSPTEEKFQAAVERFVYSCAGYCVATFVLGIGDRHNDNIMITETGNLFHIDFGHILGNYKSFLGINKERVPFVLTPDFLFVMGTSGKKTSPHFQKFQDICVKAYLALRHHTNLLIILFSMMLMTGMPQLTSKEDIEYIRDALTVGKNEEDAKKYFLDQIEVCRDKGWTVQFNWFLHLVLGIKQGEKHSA

As usually defined, the IC50 is the midpoint of a concentration-inhibition curve. As for `CN(Cc1cc2nc(-c3cccc4[nH]c(=O)sc34)nc(N3CCOCC3)c2s1)c1ncc(C(=O)NO)cn1`, the IC50 in assay [1] is less than 100 nM.
On the same count and under the same terms, under `CNCCOc1ccc(-c2nc(N3CCOCC3)c3sc(CN(C)c4ncc(C(=O)NO)cn4)cc3n2)cn1` stands more than 10000 nM.
On to `CN(Cc1cc2nc(-c3ccc4[nH]c(C(F)(F)F)nc4c3)nc(N3CCOCC3)c2s1)c1ncc(C(=O)NO)cn1`, for which the IC50 in assay [1] was less than 100 nM.
In turn, `CNc1ccc(-c2nc(N3CCOCC3)c3sc(NCCCCC(=O)NO)cc3n2)cn1` gave an IC50 in assay [1] of less than 100 nM.
The compound `CN(Cc1cc2nc(-c3ccc(N)c(Cl)c3)nc(N3CCOCC3)c2s1)c1ncc(C(=O)NO)cn1` returned a 50% inhibitory concentration (IC50) in assay [1] of 100 to 1000 nM.
For the compound `CN(Cc1cc2nc(-c3cccc4c3CC(=O)N4)nc(N3CCOCC3)c2s1)c1ncc(C(=O)NO)cn1`, the IC50 in assay [1] is more than 10000 nM.
In assay [1], `COc1ccc(-c2nc(N3CCOCC3)c3sc(C(C)(C)Nc4ncc(C(=O)NO)cn4)cc3n2)cn1` gave an IC50 of less than 100 nM.
Turning to `CNc1ccc(-c2nc(N3CCOCC3)c3sc(CN(C)c4ncc(C(=O)NO)cn4)cc3n2)cc1`, in assay [1], the IC50 is more than 10000 nM.
The compound `CN(Cc1cc2nc(-c3ccc(N)c([N+](=O)[O-])c3)nc(N3CCOCC3)c2s1)c1ncc(C(=O)NO)cn1` showed an IC50 in assay [1] of less than 100 nM.
For `Nc1ncc(-c2nc(N3CCOCC3)c3sc(NCCCC(=O)NO)cc3n2)cn1`, in assay [1], the IC50 is less than 100 nM.
Take `CC(=O)c1cccc(-c2nc(N3CCOCC3)c3sc(CN(C)c4ncc(C(=O)NO)cn4)cc3n2)c1`: the IC50 in assay [1] fell in the range of 100 to 1000 nM.
With `CN(Cc1cc2nc(-c3ccc(N)c(CO)c3)nc(N3CCOCC3)c2s1)c1ncc(C(=O)NO)cn1`, the IC50 in assay [1] was less than 100 nM.
In turn, `Nc1ccc(-c2nc(N3CCOCC3)c3sc(CN(CCO)c4ncc(C(=O)NO)cn4)cc3n2)cc1` returned an IC50 in assay [1] of less than 100 nM.
For `CN(Cc1cc2nc(-c3ccccc3)nc(N3CCOCC3)c2s1)c1ncc(C(=O)NO)cn1`, the IC50 in assay [1] is more than 10000 nM.
`CN(Cc1cc2nc(-c3ccc(O)nc3)nc(N3CCOCC3)c2s1)c1ncc(C(=O)NO)cn1` displayed an IC50 in assay [1] of 100 to 1000 nM.
Regarding `Cc1ncc(-c2nc(N3CCOCC3)c3sc(CN(C)c4ncc(C(=O)NO)cn4)cc3n2)s1`, the IC50 in assay [1] is 100 to 1000 nM.
The same measure, in the same setting: next, `Nc1ncc(-c2nc(N3CCOCC3)c3sc(NS(=O)(=O)c4ccc(/C=C/C(=O)NO)cc4)cc3n2)cn1`: less than 100 nM.
`CS(=O)(=O)N1CCN(Cc2cc3nc(-c4ccc(OCCCCC(=O)NO)cc4)nc(N4CCOCC4)c3s2)CC1` registered an IC50 in assay [1] of 100 to 1000 nM.
`COc1ncc(-c2nc(N3CCOCC3)c3sc(C(C)(C)Nc4ncc(C(=O)NO)cn4)cc3n2)cn1` gave an IC50 in assay [1] of less than 100 nM.
In assay [1], `CS(=O)(=O)N1CCN(Cc2cc3nc(-c4cccc5[nH]ncc45)nc(N4CCN(CCCCCCC(=O)NO)CC4)c3s2)CC1` came in with an IC50 of more than 10000 nM.
In assay [1], `Nc1ncc(-c2nc(N3CCOCC3)c3sc(NCCCCC(=O)NO)cc3n2)cn1` had an IC50 of less than 100 nM.
The compound `CN(Cc1cc2nc(-c3ccc4c(c3)CC(=O)N4)nc(N3CCOCC3)c2s1)c1ncc(C(=O)NO)cn1` yielded an IC50 in assay [1] of more than 10000 nM.
On the same count and under the same terms, next, `CN(Cc1cc2nc(-c3cccc(OCCO)c3)nc(N3CCOCC3)c2s1)c1ncc(C(=O)NO)cn1`: less than 100 nM.
As to `CN(Cc1cc2nc(-c3ccc(Cl)cc3)nc(N3CCOCC3)c2s1)c1ncc(C(=O)NO)cn1`, the IC50 in assay [1] is more than 10000 nM.
On the same count and under the same terms, under `COc1ncc(-c2nc(N3CCOCC3)c3sc(C(C)(C)N(C)c4ncc(C(=O)NO)cn4)cc3n2)cn1` stands 100 to 1000 nM; under `CCCc1nc2cc(C=CC(=O)NO)ccc2n1CCNCc1cc2nc(-c3ccc(NC)nc3)nc(N3CCOCC3)c2s1`, less than 100 nM; under `CN(Cc1cc2nc(-c3cccc(S(N)(=O)=O)c3)nc(N3CCOCC3)c2s1)c1ncc(C(=O)NO)cn1`, 100 to 1000 nM.
`O=C(CCCCNc1cc2nc(-c3cc(O)ccc3F)nc(N3CCOCC3)c2s1)NO` had an IC50 in assay [1] of less than 100 nM.
In the case of `CN(Cc1cc2nc(-c3cccc4[nH]ncc34)nc(N3CCN(CCO)CC3)c2s1)c1ncc(C(=O)NO)cn1`, in assay [1], the IC50 was more than 10000 nM.
In assay [1], `COc1ncc(-c2nc(N3CCOCC3)c3sc(C(C)N(C)c4ncc(C(=O)NO)cn4)cc3n2)cn1` (stereo not given) yielded an IC50 of less than 100 nM.
`COc1ccc(-c2nc(N3CCOCC3)c3sc(NCCCCCC(=O)NO)cc3n2)cn1` showed an IC50 in assay [1] of less than 100 nM.
Consider `CN(Cc1cc2nc(-c3cccc4[nH]c(=S)[nH]c34)nc(N3CCOCC3)c2s1)c1ncc(C(=O)NO)cn1`, for which, in assay [1], the IC50 is less than 100 nM.
As for `CS(=O)(=O)N1CCN(Cc2cc3nc(-c4cccc5[nH]ncc45)nc(NCCCCCC(=O)NO)c3s2)CC1`, in assay [1], the IC50 was more than 10000 nM.
In assay [1], `CN(Cc1cc2nc(-c3cccc(C(C)(C)O)c3)nc(N3CCOCC3)c2s1)c1ncc(C(=O)NO)cn1` registered an IC50 of more than 10000 nM.
Same read-out and setting: under `CNc1ccc(-c2nc(N3CCOCC3)c3sc(CNCc4nc5cc(C=CC(=O)NO)ccc5n4C)cc3n2)cn1` stands less than 100 nM; under `CNc1ccc(-c2nc(N3CCOCC3)c3sc(C(C)(C)N(C)c4ncc(C(=O)NO)cn4)cc3n2)cn1`, 100 to 1000 nM.
Still for that read-out and setting: next, `Nc1ccc(-c2nc(N3CCOCC3)c3sc(CNCc4ccc(C(=O)NO)cc4)cc3n2)cc1`: more than 10000 nM.
Regarding `C[C@@H](O)c1cccc(-c2nc(N3CCOCC3)c3sc(CN(C)c4ncc(C(=O)NO)cn4)cc3n2)c1`, the IC50 in assay [1] was 100 to 1000 nM.
On the same count and under the same terms, next, `CN(Cc1cc2nc(-c3cccc4c3CCN4)nc(N3CCOCC3)c2s1)c1ncc(C(=O)NO)cn1`: more than 10000 nM; `Cn1c(CNCc2cc3nc(-c4ccc(N)cc4)nc(N4CCOCC4)c3s2)nc2cc(C=CC(=O)NO)ccc21`: 100 to 1000 nM.
On to `CC(C)C(=O)Nc1ccc(-c2nc(N3CCOCC3)c3sc(CN(C)c4ncc(C(=O)NO)cn4)cc3n2)cc1`, for which the IC50 in assay [1] was in the range of 100 to 1000 nM.
`CS(=O)(=O)N1CCN(Cc2cc3nc(-c4cccc5nn(CCCCCC(=O)NO)cc45)nc(N4CCOCC4)c3s2)CC1`: the IC50 in assay [1] was more than 10000 nM.
For the compound `COc1ncc(-c2nc(N3CCOCC3)c3sc(NS(=O)(=O)c4cccc(C=CC(=O)NO)c4)cc3n2)cn1`, the IC50 in assay [1] is less than 100 nM.
`CN(C)c1ccc(-c2nc(N3CCOCC3)c3sc(CN(C)c4ncc(C(=O)NO)cn4)cc3n2)cc1`: in assay [1], the IC50 was more than 10000 nM.
As for `COc1ccc(-c2nc(N3CCOCC3)c3sc(Nc4ncc(C(=O)NO)cn4)cc3n2)cn1`, in assay [1], the IC50 is less than 100 nM.
The same measure, in the same setting: next, `CC(=O)N1CCN(c2nc(-c3cccc4[nH]ncc34)nc3cc(CN(C)c4ncc(C(=O)NO)cn4)sc23)CC1`: more than 10000 nM; `CS(=O)(=O)N1CCN(Cc2cc3nc(-c4cccc5[nH]ncc45)nc(N4CCN(CCCCC(=O)NO)CC4)c3s2)CC1`: more than 10000 nM.
Turning to `CS(=O)(=O)N1CCN(Cc2cc3nc(-c4cccc5[nH]ncc45)nc(N4CCN(CCCCCC(=O)NO)CC4)c3s2)CC1`, the IC50 in assay [1] was more than 10000 nM.
The compound `Nc1ccc(-c2nc(N3CCOCC3)c3sc(C(=O)NCC4CCN(c5ncc(C(=O)NO)cn5)CC4)cc3n2)cc1` gave an IC50 in assay [1] of 100 to 1000 nM.
For the compound `CN(c1ncc(C(=O)NO)cn1)c1cc2nc(-c3ccc(N)cc3)nc(N3CCOCC3)c2s1`, in assay [1], the IC50 is less than 100 nM.
Turning to `CS(=O)(=O)N1CCN(Cc2cc3nc(-c4cccc5nn(CCCCCCC(=O)NO)cc45)nc(N4CCOCC4)c3s2)CC1`, the IC50 in assay [1] is more than 10000 nM.
The compound `COc1cccc(Nc2nc(-c3cccc4[nH]ncc34)nc3cc(CN(C)c4ncc(C(=O)NO)cn4)sc23)c1` came in with an IC50 in assay [1] of more than 10000 nM.
Consider `CN(Cc1cc2nc(-c3ccc4[nH]c(=O)[nH]c4c3)nc(N3CCOCC3)c2s1)c1ncc(C(=O)NO)cn1`, for which, in assay [1], the IC50 was more than 10000 nM.
`CNc1ccc(-c2nc(N3CCOCC3)c3sc(NS(=O)(=O)c4ccc(C=CC(=O)NO)cc4)cc3n2)cn1` yielded an IC50 in assay [1] of less than 100 nM.
In turn, `COc1ccc(-c2nc(N3CCOCC3)c3sc(CN(C)c4ncc(C(=O)NO)cn4)cc3n2)cc1` registered a 50% inhibitory concentration (IC50) in assay [1] of more than 10000 nM.
`CC(C)c1ccc(-c2nc(N3CCOCC3)c3sc(CN(C)c4ncc(C(=O)NO)cn4)cc3n2)cc1` registered an IC50 in assay [1] of more than 10000 nM.
With `CNc1ccc(-c2nc(N3CCOCC3)c3sc(NS(=O)(=O)c4cccc(C=CC(=O)NO)c4)cc3n2)cn1`, the IC50 in assay [1] was less than 100 nM.
Regarding `CCNc1ccc(-c2nc(N3CCOCC3)c3sc(CN(C)c4ncc(C(=O)NO)cn4)cc3n2)cc1`, the IC50 in assay [1] was more than 10000 nM.
Still for that read-out and setting: next, `Nc1ncc(-c2nc(N3CCOCC3)c3sc(NCCCCCC(=O)NO)cc3n2)cn1`: less than 100 nM.
In assay [1], `CNc1ccc(-c2nc(N3CCOCC3)c3sc(C(C)(C)Nc4ncc(C(=O)NO)cn4)cc3n2)cn1` returned an IC50 of less than 100 nM.
As to `CN(Cc1cc2nc(-c3ccc(C#N)cc3)nc(N3CCOCC3)c2s1)c1ncc(C(=O)NO)cn1`, the 50% inhibitory concentration (IC50) in assay [1] is more than 10000 nM.
As for `CNc1ccc(-c2nc(N3CCOCC3)c3sc(CN(C)c4ncc(C(=O)NO)cn4)cc3n2)cn1`, the IC50 in assay [2] is 100 to 1000 nM; in assay [3], 100 to 1000 nM; in assay [1], less than 100 nM; in assay [4], less than 100 nM.

For the origin of these results see the Kinase Knowledgebase extract (Sharma et al. 2016).
